Test results published in patent US20210316010A1, “DRUG DELIVERY PRODUCT, COMPOSITION AND SYSTEM” (MASTER DYNAMIC LIMITED, priority 2018, published 2021).

Columns and labels:
SAS MCTS = experiment: Penetration and distribution in SAS multicellular tumor spheroids (MCTS), confocal microscopy; type: cell-based, Human; details: after 1 day of incubation
Description: In order to investigate the penetration of DOX with different formulations (ND-DOX and ND-HSA-DOX) in tissue model in vitro, SAS MCTS were used to incubate with ND, free DOX, ND-DOX and ND-HSA-DOX.
The ND and DOX with different formulations complex uptake and distribution in SAS MCTS model was monitored by using CLSM.
The cell nuclei were stained with Hoechst […] which emits blue fluorescence (440 nm-484 nm), cell membrane were dyed with 3,3′-dipentyloxacarbocyanine iodide (DIOC'5), and the signal was collected in the 520-555 nm range, shown in red color.
In order to promote the multicellular tumor spheroids (MCTS) formation, SAS cells were seeded in Gravity TRAP ULA Plate, by Insphero, at a density of 5,000 cells per well and cultured at 37° C. with 5% CO2 for 3 days before drug treatment.
For the distributions of ND, DOX, ND-DOX and ND-HSA-DOX within MCTS were determined by confocal laser microscopy.
SAS MCTS were treated with ND, DOX, ND-DOX and ND-HSA-DOX for 4 days. Each day, one of treatment MCTS was harvested and fixed with 3.7% formaldehyde for 24 h. Washing the MCTS 3 time with PBS, and MCTS was incubated with DIOC'5 for 24 h. After washing 3 times, Hoechst 33342 was incubated with MCTS for 24 h. Then MCTS was observed by confocal microscopy.

SAS cells = experiment: Monolayer 2D SAS cellular uptake, confocal laser scanning microscopy; type: cell-based, Human; details: 4 hrs incubation, DOX 20 μg/ml
Source text: Intracellular trafficking and distribution of DOX within SAS cells were used to further investigate the outcomes, by using confocal laser scanning microscopy (CLSM), as shown in the images of FIGS. 21 and 21I.
The 50 nm ND fluorescence was excited with 488 nm, and collected in range 500-515 nm. The ND's fluorescence in this range corresponds predominantly to emission from diamond H^3 defect centers with emission peak near 505 nm, shown as green colour 206. The bright fields as evidenced, were also provided to reveal the morphologies of SAS cells.
Human Oral Squamous Carcinoma cell (SAS) cells were cultured in DMEM medium (Gibco, Invitrogen, UK). The medium was supplemented with 2 mM L-glutamine (Invitrogen, USA), 1.5 g/L sodium bicarbonate (Sigma, UK), 10% fetal bovine serum (Gibco/Life Technologies, Carlsbad, Calif., USA).
Cells were maintained under standard cell culture conditions in an incubator (Galaxy 170S, Eppendorf, USA) containing 95% air and 5% CO2 at 37° C. humid environment.
Culture medium was replaced with a fresh medium every 48 or 72 hr. […]
Unreacted samples were removed by washing. […] The emission of DOX was absorbed at 570-590 nm and ND was detected at 500-515 nm.

HeLa cells = details: treatment for 5 h; cited from earlier work

COc1cccc2c1C(=O)c1c(O)c3c(c(O)c1C2=O)C[C@@](O)(C(=O)CO)C[C@@H]3O[C@H]1C[C@H](N)[C@H](O)[C@H](C)O1.Cl [DOX, doxorubicin hydrochloride]
penetration in SAS MCTS (SAS MCTS): limited to the outer cell layers
intracellular distribution of DOX (SAS cells): distributed on cytoplasm
intracellular location of DOX (HeLa cells): located in nuclear of HeLa cells
